In patent US20220089609A1, “SUBSTITUTED QUINAZOLINONE DERIVATIVES AND THEIR USE AS POSITIVE ALLOSTERIC MODULATORS OF MGLUR4” (DOMAIN THERAPEUTICS, priority 2018, published 2022):
Structures can show the parent of a compound that is named as a salt.

Target: T1, human mGluR4 (hmGluR4) (Homo sapiens, UniProt Q14833)
T1 construct: expressed in transfected cells; host or cells: HEK-293 cells, transient co-transfection by electroporation
Experiment: Calcium assay EC50 determination, positive allosteric modulator activity on hmGluR4 transiently over-expressed in HEK-293 cells
Type: cell-based
Details: PAM mode with EC20 glutamate; hmGluR4 in HEK-293 cells; intracellular calcium (Fluo4AM); read-out: mGluR4 positive allosteric modulator activity, half maximal effective concentration (EC50)
Procedure: Compounds are tested successively for their agonist and positive allosteric modulator activities on human mGluR4 (hmGluR4) transiently over-expressed in HEK-293 cells. Compounds exert agonist activity if, by themselves in absence of glutamate, they are able to activate hmGluR4; and they exert positive allosteric modulator activity if they increase the action of glutamate.
HEK-293 cells are maintained in Modified Eagle's Medium supplemented with 10% Foetal Calf Serum, 1% Penicillin/Streptomycin and 1% non-essential amino acids at 37° C./5% CO2.
Cells are co-transfected by electroporation with four DNA plasmids encoding hmGluR4, a chimeric G protein allowing redirection of the activation signal to intracellular calcium pathway, and glutamate transporters to decrease extracellular glutamate concentration so as to limit receptor desensitization. After transfection, cells are cultured for 24 h at 37° C./5% CO2.
Calcium Assay EC50 determination
Receptor activity is detected by changes in intracellular calcium measured using the fluorescent Ca^2+ sensitive dye, Fluo4AM (Molecular Probes).
On the day of the assay, culture medium is aspirated and replaced during 3 hours by medium without serum supplemented with 1% Glutamax, 1% Penicillin/Streptomycin and 1% non-essential amino acids. Then, cells are washed with freshly prepared buffer B (HBSS 1× (PAA), Hepes 20 mM, MgSO4-7H2O 1 mM, Na2CO3 3.3 mM, CaCl2-2H2O 1.3 mM, 0.1% BSA, Probenecid 2.5 mM) and loaded at 37° C. in 5% CO2 for 1.5 hours with buffer B containing 1 μM Fluo4AM, 0.1 mg/mL Pluronic Acid, 7 μg/mL Glutamate Pyruvate Transaminase and 2 mM sodium pyruvate. Afterwards cells are washed twice with buffer B. Then cells are detached using StemPro Accutase (Fisher Scientific), resuspended in buffer B and seeded in 384 well plate at a density of 30,000 cells per well. Addition of compounds and intracellular Ca^2+ measurements (excitation 485 nm, emission 525 nm) are performed by the fluorescence microplate reader FLIP^Tetra (Molecular Devices).
Agonist and positive allosteric modulator activities of compounds are consecutively evaluated on the same cell plate. Agonist activity is first tested during 10 minutes with the addition of compound alone on the cells. Then, cells are stimulated by an EC20 glutamate concentration and fluorescence is recorded for additional 3 minutes. EC20 glutamate concentration is the concentration giving 20% of the maximal glutamate response. Agonist or positive allosteric modulator activity(ies) are evaluated in comparison to basal signals evoked by buffer B or EC20 glutamate alone, respectively.

T1 sequence (Q14833 33-912): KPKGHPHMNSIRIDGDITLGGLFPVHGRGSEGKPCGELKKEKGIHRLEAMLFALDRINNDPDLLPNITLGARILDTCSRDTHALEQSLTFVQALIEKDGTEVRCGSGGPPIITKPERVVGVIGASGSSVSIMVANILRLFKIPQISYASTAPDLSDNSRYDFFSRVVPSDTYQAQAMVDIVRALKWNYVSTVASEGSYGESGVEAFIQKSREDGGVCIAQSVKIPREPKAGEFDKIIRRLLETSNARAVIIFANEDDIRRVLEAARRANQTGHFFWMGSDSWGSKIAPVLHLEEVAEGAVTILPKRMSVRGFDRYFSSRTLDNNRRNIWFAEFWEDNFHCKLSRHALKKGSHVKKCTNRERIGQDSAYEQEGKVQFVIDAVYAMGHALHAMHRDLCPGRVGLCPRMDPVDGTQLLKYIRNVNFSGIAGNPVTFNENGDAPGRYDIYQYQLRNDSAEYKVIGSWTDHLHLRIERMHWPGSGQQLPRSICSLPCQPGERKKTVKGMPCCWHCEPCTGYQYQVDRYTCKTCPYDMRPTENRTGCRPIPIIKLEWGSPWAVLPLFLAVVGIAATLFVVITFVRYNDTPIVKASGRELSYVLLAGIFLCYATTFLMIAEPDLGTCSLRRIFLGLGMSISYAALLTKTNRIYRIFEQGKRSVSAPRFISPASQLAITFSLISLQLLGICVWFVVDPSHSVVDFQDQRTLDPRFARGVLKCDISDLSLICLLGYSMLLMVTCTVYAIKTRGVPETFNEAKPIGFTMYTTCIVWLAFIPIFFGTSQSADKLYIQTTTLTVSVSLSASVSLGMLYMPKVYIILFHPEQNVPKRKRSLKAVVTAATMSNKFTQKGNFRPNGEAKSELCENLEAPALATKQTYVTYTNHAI

| EC50 | Structure (SMILES) |
| --- | --- |
| 100 to 1000 nM | O=c1[nH]c(-c2cc(C(F)(F)F)ccn2)nc2ccc(OCCC3CCOCC3)cc12 [Compound 58, 6-[2-(Tetrahydro-pyran-4-yl)-ethoxy]-2-(4-trifluoromethyl-pyridin-2-yl)-3H-quinazolin-4-one] |
| 100 to 1000 nM | O=c1[nH]c(-c2cc3ccsc3cn2)nc2ccc(OCCCc3ccncc3F)cc12 [Compound 59, 6-[3-(3-Fluoro-pyridin-4-yl)-propoxy]-2-thieno[2,3-c]pyridin-5-yl-3H-quinazolin-4-one] |
| 100 to 1000 nM | Cc1cc(CCCOc2ccc3nc(-c4cc5ccsc5cn4)[nH]c(=O)c3c2)ccn1 [Compound 63, 6-[3-(2-Methyl-pyridin-4-yl)-propoxy]-2-thieno[2,3-c]pyridin-5-yl-3H-quinazolin-4-one hydrochloride] |
| ≤ 100 nM | Cc1cc(OCCCc2ccncc2)cc2c(=O)[nH]c(-c3cc4ccsc4cn3)nc12 [Compound 65, 8-Methyl-6-(3-pyridin-4-yl-propoxy)-2-thieno[2,3-c]pyridin-5-yl-3H-quinazolin-4-one hydrochloride] |
| 100 to 1000 nM | O=c1[nH]c(-c2cc3ccsc3cn2)nc2ccc(OCCCc3ccncc3)nc12 [Compound 66, 6-(3-Pyridin-4-yl-propoxy)-2-thieno[2,3-c]pyridin-5-yl-3H-pyrido[3,2-d]pyrimidin-4-one hydrochloride] |
| > 10000 nM | O=c1[nH]c(-c2cc(C(F)(F)F)ccn2)nc2ncc(OCCCc3ccncc3)cc12 [Compound 68, 6-(3-Pyridin-4-yl-propoxy)-2-(4-trifluoromethyl-pyridin-2-yl)-3H-pyrido[2,3-d]pyrimidin-4-one hydrochloride] |
| 100 to 1000 nM | O=c1[nH]c(-c2cc(C(F)(F)F)ccn2)nc2cnc(OCCCc3ccncc3)cc12 [Compound 69, 6-(3-Pyridin-4-yl-propoxy)-2-(4-trifluoromethyl-pyridin-2-yl)-3H-pyrido[3,4-d]pyrimidin-4-one hydrochloride] |
| 1000 to 10000 nM | O=c1[nH]c(-c2cc3ccsc3cn2)nc2cc(C(F)(F)F)c(OCCCc3ccncc3)cc12 [Compound 70, 6-(3-Pyridin-4-yl-propoxy)-2-thieno[2,3-c]pyridin-5-yl-7-trifluoromethyl-3H-quinazolin-4-one hydrochloride] |
| > 10000 nM | O=c1[nH]c(-c2cc3ccsc3cn2)nc2ccc(OCCCc3ccncc3)c(Cl)c12 [Compound 71, 5-Chloro-6-(3-pyridin-4-yl-propoxy)-2-thieno[2,3-c]pyridin-5-yl-3H-quinazolin-4-one hydrochloride] |
| 100 to 1000 nM | O=c1[nH]c(-c2cc3ccsc3cn2)nc2c(Cl)cc(OCCCc3ccncc3)cc12 [Compound 72, 8-Chloro-6-(3-pyridin-4-yl-propoxy)-2-thieno[2,3-c]pyridin-5-yl-3H-quinazolin-4-one hydrochloride] |
| 100 to 1000 nM | O=c1[nH]c(-c2cc3ccsc3cn2)nc2c(C3CC3)cc(OCCCc3ccncc3)cc12 [Compound 73, 8-Cyclopropyl-6-(3-pyridin-4-yl-propoxy)-2-thieno[2,3-c]pyridin-5-yl-3H-quinazolin-4-one hydrochloride] |
| 100 to 1000 nM | CCc1cc(OCCCc2ccncc2)cc2c(=O)[nH]c(-c3cc4ccsc4cn3)nc12 [Compound 74, 8-Ethyl-6-(3-pyridin-4-yl-propoxy)-2-thieno[2,3-c]pyridin-5-yl-3H-quinazolin-4-one hydrochloride] |
| 100 to 1000 nM | O=c1[nH]c(-c2cc3ccsc3cn2)nc2c(F)cc(OCCCc3ccncc3)cc12 [Compound 75, 8-Fluoro-6-(3-pyridin-4-yl-propoxy)-2-thieno[2,3-c]pyridin-5-yl-3H-quinazolin-4-one] |
| ≤ 100 nM | Cc1cc(OCC2CCOCC2)cc2c(=O)[nH]c(-c3cc4ccsc4cn3)nc12 [Compound 76, 8-Methyl-6-(tetrahydro-pyran-4-ylmethoxy)-2-thieno[2,3-c]pyridin-5-yl-3H-quinazolin-4-one] |
| 100 to 1000 nM | Cc1cc(OCCC2COC2)cc2c(=O)[nH]c(-c3cc4ccsc4cn3)nc12 [Compound 77, 8-Methyl-6-(2-oxetan-3-yl-ethoxy)-2-thieno[2,3-c]pyridin-5-yl-3H-quinazolin-4-one] |
| ≤ 100 nM | Cc1cc(OCCC2CCOC2)cc2c(=O)[nH]c(-c3cc4ccsc4cn3)nc12 (stereo not drawn) [Compound 78, 8-Methyl-6-[2-(tetrahydro-furan-3-yl)-ethoxy]-2-thieno[2,3-c]pyridin-5-yl-3H-quinazolin-4-one] |
| 100 to 1000 nM | Cc1cc(OCCC2CCOCC2)cc2c(=O)[nH]c(-c3cc4ccsc4cn3)nc12 [Compound 79, 8-Methyl-6-[2-(tetrahydro-pyran-4-yl)-ethoxy]-2-thieno[2,3-c]pyridin-5-yl-3H-quinazolin-4-one] |
| ≤ 100 nM | Cc1cc(OCC2CCOC2)cc2c(=O)[nH]c(-c3cc4ccsc4cn3)nc12 (stereo not drawn) [Compound 80, 8-Methyl-6-(tetrahydro-furan-3-ylmethoxy)-2-thieno[2,3-c]pyridin-5-yl-3H-quinazolin-4-one] |
| ≤ 100 nM | Cc1cc(OC[C@@H]2CCOC2)cc2c(=O)[nH]c(-c3cc4ccsc4cn3)nc12 [Compound 80-R, R-8-Methyl-6-(tetrahydro-furan-3-ylmethoxy)-2-thieno[2,3-c]pyridin-5-yl-3H-quinazolin-4-one] |
| ≤ 100 nM | Cc1cc(OC[C@H]2CCOC2)cc2c(=O)[nH]c(-c3cc4ccsc4cn3)nc12 [Compound 80-S, S-8-Methyl-6-(tetrahydro-furan-3-ylmethoxy)-2-thieno[2,3-c]pyridin-5-yl-3H-quinazolin-4-one] |
| ≤ 100 nM | CCC(=O)N1CC[C@H](Oc2cc(C)c3nc(-c4cc5ccsc5cn4)[nH]c(=O)c3c2)C1 [Compound 82-S, S-8-Methyl-6-(1-propionyl-pyrrolidin-3-yloxy)-2-thieno[2,3-c]pyridin-5-yl-3H-quinazolin-4-one] |
| 100 to 1000 nM | Cc1cc(O[C@@H]2CCN(C3COC3)C2)cc2c(=O)[nH]c(-c3cc4ccsc4cn3)nc12 [Compound 83-R, R-8-Methyl-6-(1-oxetan-3-yl-pyrrolidin-3-yloxy)-2-thieno[2,3-c]pyridin-5-yl-3H-quinazolin-4-one] |
| ≤ 100 nM | Cc1cc(O[C@H]2CCN(C3COC3)C2)cc2c(=O)[nH]c(-c3cc4ccsc4cn3)nc12 [Compound 83-S, S-8-Methyl-6-(1-oxetan-3-yl-pyrrolidin-3-yloxy)-2-thieno[2,3-c]pyridin-5-yl-3H-quinazolin-4-one] |
| 100 to 1000 nM | Cc1cc(OCCN2CCC3(CC2)COC3)cc2c(=O)[nH]c(-c3cc4ccsc4cn3)nc12 [Compound 84, 8-Methyl-6-[2-(2-oxa-7-aza-spiro[3.5]non-7-yl)-ethoxy]-2-thieno[2,3-c]pyridin-5-yl-3H-quinazolin-4-one] |
| ≤ 100 nM | Cc1cc(OCC2CCN(C3COC3)CC2)cc2c(=O)[nH]c(-c3cc4ccsc4cn3)nc12 [Compound 86, 8-Methyl-6-(1-oxetan-3-yl-piperidin-4-ylmethoxy)-2-thieno[2,3-c]pyridin-5-yl-3H-quinazolin-4-one] |
| 100 to 1000 nM | CCC(=O)N1CCC(COc2cc(C)c3nc(-c4cc5ccsc5cn4)[nH]c(=O)c3c2)CC1 [Compound 87, 8-Methyl-6-(1-propionyl-piperidin-4-ylmethoxy)-2-thieno[2,3-c]pyridin-5-yl-3H-quinazolin-4-one] |
| ≤ 100 nM | Cc1cc(OCC2CCN(S(C)(=O)=O)CC2)cc2c(=O)[nH]c(-c3cc4ccsc4cn3)nc12 [Compound 88, 6-(1-Methanesulfonyl-piperidin-4-ylmethoxy)-8-methyl-2-thieno[2,3-c]pyridin-5-yl-3H-quinazolin-4-one] |
| ≤ 100 nM | Cc1cc(N2CCC3(CC2)COC3)cc2c(=O)[nH]c(-c3cc4ccsc4cn3)nc12 [Compound 89, 8-Methyl-6-(2-oxa-7-aza-spiro[3.5]non-7-yl)-2-thieno[2,3-c]pyridin-5-yl-3H-quinazolin-4-one] |
| ≤ 100 nM | Cc1cc(N2CC3(CCOC3)C2)cc2c(=O)[nH]c(-c3cc4ccsc4cn3)nc12 [Compound 90, 8-Methyl-6-(6-oxa-2-aza-spiro[3.4]oct-2-yl)-2-thieno[2,3-c]pyridin-5-yl-3H-quinazolin-4-one] |
| ≤ 100 nM | Cc1cc(N2CCC3(CCOCC3)CC2)cc2c(=O)[nH]c(-c3cc4ccsc4cn3)nc12 [Compound 91, 8-Methyl-6-(3-oxa-9-aza-spiro[5.5]undec-9-yl)-2-thieno[2,3-c]pyridin-5-yl-3H-quinazolin-4-one] |
